Test results reported in patent publication US20240009170A1, “INHIBITION OF GLYCOGEN SYNTHASE KINASE-3 (GSK-3)” (Brown University, priority 2020, published 2024).

Columns and labels:
[1] = tested on: healthy donor-derived CD8+ T cells; experiment: Cytokine profile of immune cell culture supernatant, donor-derived CD8+ T cells; type: cell-based, Human; details: 1 μM, 48 hours
Description: Isolation of donor derived CD8+ T cells. An Easy Step Human CD8+ T Cell Isolation Kit was used to isolated CD8+ T cells from a donor PBMC sample via negative selection (Cat #, 17913, Stem Cell Technologies, Vancouver, Canada).
Collection of cell culture supernatants used in cytokine measurements. Cells were plated at 3.5×10^4 cells in a 48-well plate (Thermo Fisher Scientific, Waltham, MA, USA) in complete medium and incubated at 37° C. with 5% CO2. At twenty-four hours after plating, almost all the tumor cells were adherent to the bottom of the flask and the complete medium was replaced with drug-containing medium. Subsequently, the culture supernatants were collected after forty-eight hours of incubation and were frozen at −80° C. until the measurement of cytokines was performed. The day of analysis, samples were thawed and centrifuged to remove cellular debris.
Human cytokine profiling. Human cell line culture supernatants were analyzed using an R&D systems Human Premixed Multi-Analyte Kit (R&D Systems, Inc., Minneapolis, MN, USA) and a Luminex 200 Instrument (LX200-XPON-RUO, Luminex Corporation, Austin, TX, USA) according to the manufacturer's instructions. […]
9-ING-41 increases secreted cytotoxic proteins IFN-v, Granzyme B, and TRAIL in immune cells. […] Here, the inventors determined how 9-ING-41 treatment impacts the immune cell cytokinome. […]

[2] = Body weight, complete blood count and serum chemistry in the CT-26 BALB/c model; design: species or system BALB/c mice; details: mouse, in vivo
Source text: As can be expected in mice with significant tumor burdens, mice across treatment groups had decreased albumin levels and evidence of mild marrow hypoplasia resulting in mild anemia, and lower white blood cell and platelet counts. This effect was independent of treatment group and likely related to tumor burden at the time of sacrifice.

TALL-104 = experiment: Flow cytometric analysis of cell surface markers, TALL-104; type: cell-based, Human; details: compared to DMSO treatment alone
Description: FIG. 12 is a set of bar graphs showing flow cytometric analyses of cell surface markers of tumor and immune cells treated with 9-ING-41 in vitro. FIG. 12(A) HCT-116, FIG. 12(B) HT-29, FIG. 12(C) TALL-104, and FIG. 12(D) NK-92 cells were treated with indicated concentrations of 9-ING-41 for forty-eight hours, stained for indicated cell surface marker expression, and analyzed with a BD LSRII. Statistical significance was determined using two-tailed unpaired T tests.
To further understand the differential 9-ING-41-mediated impacts on protein expression, the inventors treated tumor and immune cells in vitro with 9-ING-41, then performed a flow cytometric analysis for expression of cell surface markers. […] A similar trend occurred in HT-29 cells, although not statistically significant. […] FIG. 10(C). […] FIG. 10(D).

TALL-104 T cells = experiment: Western blot analysis, TALL-104; type: cell-based, Human
Description: Western blot analysis. Cells were plated in a 6-well plate and incubated overnight before the spent media was replaced with drugged media. Drug treatment lasted for indicated durations. Protein was extracted using radioimmunoprecipitation (RIPA) assay buffer (Cat #R0278, Sigma-Aldrich, St. Louis, MO) containing cOmplete™ Mini, EDTA-free Protease Inhibitor Cocktail (Cat #4693159001, Roche, Basel, Switzerland). Denaturing sample buffer was added, samples were boiled at 95 degrees for 10 minutes. An equal amount of protein lysate was electrophoresed through NuPAGE™ 4 to 12%, Bis-Tris, 1.5 mm, Mini Protein Gels (Invitrogen, Waltham, MA, USA) then transferred to PVDF membranes. The PVDF membrane was blocked with 5% non-fat milk (Sigma-Aldrich, St. Louis, MO, USA) in 1× TTBS. Primary antibodies were incubated with the transferred PVDF membrane in blocking buffer at 4° C. overnight. Secondary antibodies used included goat anti-rabbit IgG (H+L) secondary antibody, HRP (Cat #31460, Invitrogen, Waltham, MA, USA) and goat anti-mouse IgG (H+L) secondary antibody, HRP (Cat #31430, Invitrogen, Waltham, MA, USA). Signal was detected using a Syngene Imaging System.
9-ING-41 treatment decreases survival factor expression while increasing PD-L1 levels in colorectal cancer cell lines. To elucidate the mechanism behind the differential effects of 9-ING-41 on either colorectal cancer or immune cells in co-culture and cytokine profiling assays, the inventors performed Western blot analyses on tumor and immune cells treated with 9-ING-41 over a 72-hour time course.
Treating cells from colorectal cancer cell lines with 1 μM 9-ING-41 decreases Surivin, NF-κB p65, and IκBα while increasing PD-L1 levels in, 9-ING-41 treatment of immune cells increases NIK. Western blot analysis of HCT-116 and HT-29 colorectal cancer cells for expression of indicated proteins after increasing durations of 9-ING-41 treatment (0-72 hours). Western blot analysis of TALL-104 T cells for expression of indicated proteins after increasing durations of 9-ING-41 treatment (0-72 hours). […]

Cn1cc(C2=C(c3coc4ccc(F)cc34)C(=O)NC2=O)c2cc3c(cc21)OCO3 [9-ING-41]
all three cytotoxic molecules (IFN-γ, granzyme B, TRAIL) [1]: increases
electrolyte perturbations [2]: free of significant electrolyte perturbations
renal function (blood urea nitrogen and creatinine) [2]: maintained normal renal function
TRAIL expression (TALL-104): significant decreased
PD-1 expression (TALL-104 T cells; 0-72 hours): decreased
Survivin and NIK (TALL-104 T cells; 0-72 hours): surprising increases
NF-KB, IKK β, IKBα, pIKBα, and Bcl-2 (TALL-104 T cells; as treatment duration increased): no significant changes
